Results: patent US8338422B2, “Indolin-2-ones and aza-indolin-2-ones” (Janssen Pharmaceutica NV, priority 2007, dated 2012)
Values joined by “and” are separate entries in the source; they are usually repeats but may differ in a detail not shown here. Equal entries are not always repeated.

Legend:
[1] = system: Colo205; assay: Cellular proliferation assay (Alamar blue), Colo205; type: cell-based; conditions: Homo sapiens, COLO 205, Colo205 cells, 72 hours with compound, 10% FCS, read-out: pIC50 Colo205 (converted)
Method: (§1) […] functional properties of these compounds was tested in cellular proliferation assays on a panel of different cell lines in the presence of 10% FCS serum (37° C. and 5% (v/v) CO2). In a first step these cells were seeded and incubated for 24 hours in the absence of compound. In the second step the cells were incubated for 72 hours with the compounds to be tested for 72 hours. The viable cell number was finally assessed in a standard Alamar blue cell viability assay.
(§2) The viable cell number was assessed by incubation for either 4 h (HCT-116, H1299, H460) 6 h (SKOV3, HT29, U87-MG, Colo205) or 24 h (A2780, PC3, MDA-MB-231, A549, MCF-7) with Alamar blue (Resazurin 9 μg/ml, K-Ferrocyanide 90 μM K-Ferricyanide 90 μM) and the converted fluorescent product was quantified on a fluorescent plate readed (544 nm/590 nm). Effect of the compounds is calculated as of on control cells.

[2] = target: PLK4 (h) (Homo sapiens, UniProt O00444); assay: PLK-4 human kinase assay (SPA); type: biochemical; conditions: read-out: PLK4 pIC50 (converted)
How it was run: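 Radiometric readout: 33P-labelled peptide captured on streptavidin SPA beads after EDTA stop, imaged by Leadseeker. Reaction ran 60 min at room temperature in Hepes pH 8.0 buffer. It contained 1 μM ATP with 2 nM [γ-33P]ATP, 10 μM biotinylated peptide and PLK4 (h) at 19 μg/ml.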

[3] = system: H460; assay: Cellular proliferation assay (Alamar blue), H460; type: cell-based; conditions: Homo sapiens, NCI-H460, H460 cells, 72 hours with compound, 10% FCS, read-out: pIC50 H460 (converted)
Method: as §1, §2

[4] = system: A549; assay: Cellular proliferation assay (Alamar blue), A549; type: cell-based; conditions: Homo sapiens, A549 cells, 72 hours with compound, 10% FCS, read-out: pIC50 A549 (converted)
Method: as §1, §2

[5] = target: CDK1/CyclinB (h) (Homo sapiens, UniProt P06493); assay: CDK1/CyclinB human kinase assay (FRET); type: biochemical; conditions: read-out: CDK1 pIC50 (converted)
How it was run: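 Kinase activity was read as the 460/538 nm emission ratio after protease cleavage of unphosphorylated peptide (60 min development). The reaction ran 60 min at room temperature with 10 μM ATP, 2 μM Ser/Thr peptide 12 and 0.2 μg/ml enzyme in Hepes pH 7.5 buffer with MgCl2, EGTA, Brij-35.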

[6] = system: HCT-116; assay: Cellular proliferation assay (Alamar blue), HCT-116; type: cell-based; conditions: Homo sapiens, HCT-116, 72 h, HCT-116 cells, 72 hours with compound, 10% FCS, read-out: pIC50 HCT-116 (converted)
How it was run: (§3)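 Proliferation was assessed over 72 h of compound treatment, following 24 h of seeding without compound, under 10% FCS, 37° C. and 5% CO2. Fluorescent resazurin product was measured and compared with control cells.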

[7] = system: SK-N-SH; assay: Cellular proliferation assay (Alamar blue), SK-N-SH; type: cell-based; conditions: Homo sapiens, SK-N-SH cells, 72 hours with compound, 10% FCS, read-out: pIC50 SK-N-SH (converted)
Method: as §1, §2

[8] = system: MDA/MB231; assay: Cellular proliferation assay (Alamar blue), MDA/MB231; type: cell-based; conditions: Homo sapiens, MDA-MB-231, 72 h, MDA/MB231 cells, 72 hours with compound, 10% FCS, read-out: pIC50 MDA/MB231 (converted)
How it was run: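 Viable cell number was assessed by resazurin-based Alamar blue fluorescence (544 nm/590 nm) after 72 h compound exposure in 10% FCS at 37° C, which followed a 24 h compound-free seeding period. Dye incubation was 24 h for MDA-MB-231 and 4 h for H460; results expressed versus control cells.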

[9] = system: HT-29; assay: Cellular proliferation assay (Alamar blue), HT-29; type: cell-based; conditions: Homo sapiens, HT-29 cells, 72 hours with compound, 10% FCS, read-out: pIC50 HT-29 (converted)
Method: as §1, §2

[10] = system: DU-145; assay: Cellular proliferation assay (Alamar blue), DU-145; type: cell-based; conditions: Homo sapiens, DU-145 cells, 72 hours with compound, 10% FCS, read-out: pIC50 DU-145 (converted)
Method: as §1, §2

[11] = system: H1299; assay: Cellular proliferation assay (Alamar blue), H1299; type: cell-based; conditions: Homo sapiens, NCI-H1299, 72 h, H1299 cells, 72 hours with compound, 10% FCS, read-out: pIC50 H1299 (converted)
How it was run: as §3

PLK4 (h), sequence (O00444 whole entry): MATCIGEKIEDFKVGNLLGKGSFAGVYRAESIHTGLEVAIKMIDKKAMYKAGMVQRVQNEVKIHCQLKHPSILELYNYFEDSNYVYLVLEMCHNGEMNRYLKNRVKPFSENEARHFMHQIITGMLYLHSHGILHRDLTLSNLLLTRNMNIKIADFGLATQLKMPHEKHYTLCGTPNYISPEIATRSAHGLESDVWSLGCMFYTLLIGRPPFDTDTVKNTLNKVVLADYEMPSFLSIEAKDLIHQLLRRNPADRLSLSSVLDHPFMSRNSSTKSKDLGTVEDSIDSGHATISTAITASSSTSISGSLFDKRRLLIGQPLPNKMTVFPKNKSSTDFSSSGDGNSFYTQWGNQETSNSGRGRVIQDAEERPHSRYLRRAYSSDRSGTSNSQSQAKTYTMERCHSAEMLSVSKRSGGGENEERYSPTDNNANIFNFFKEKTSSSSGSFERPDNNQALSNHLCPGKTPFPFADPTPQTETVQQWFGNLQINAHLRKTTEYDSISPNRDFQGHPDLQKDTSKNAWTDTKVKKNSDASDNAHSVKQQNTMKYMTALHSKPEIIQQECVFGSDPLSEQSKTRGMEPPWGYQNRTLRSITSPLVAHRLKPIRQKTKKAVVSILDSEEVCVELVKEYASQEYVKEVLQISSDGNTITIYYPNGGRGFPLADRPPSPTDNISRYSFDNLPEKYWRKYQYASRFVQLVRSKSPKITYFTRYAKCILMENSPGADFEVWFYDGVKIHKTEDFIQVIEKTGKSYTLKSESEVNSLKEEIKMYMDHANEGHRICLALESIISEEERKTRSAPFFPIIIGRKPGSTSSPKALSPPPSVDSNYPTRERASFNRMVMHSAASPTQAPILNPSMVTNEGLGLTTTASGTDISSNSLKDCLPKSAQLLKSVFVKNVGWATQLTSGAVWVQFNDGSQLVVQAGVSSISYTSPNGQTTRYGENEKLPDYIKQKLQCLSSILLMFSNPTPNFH
CDK1/CyclinB (h), sequence (P06493 whole entry): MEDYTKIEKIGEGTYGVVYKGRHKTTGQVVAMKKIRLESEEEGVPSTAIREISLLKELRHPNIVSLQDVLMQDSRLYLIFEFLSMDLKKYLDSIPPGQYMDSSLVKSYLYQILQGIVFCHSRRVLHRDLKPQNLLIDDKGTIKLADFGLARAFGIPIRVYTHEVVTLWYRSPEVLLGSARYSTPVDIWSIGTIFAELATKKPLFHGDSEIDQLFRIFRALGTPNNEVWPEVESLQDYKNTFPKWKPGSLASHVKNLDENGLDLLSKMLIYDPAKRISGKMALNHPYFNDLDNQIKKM
CDK1/CyclinB (h), sequence (P14635 whole entry partner): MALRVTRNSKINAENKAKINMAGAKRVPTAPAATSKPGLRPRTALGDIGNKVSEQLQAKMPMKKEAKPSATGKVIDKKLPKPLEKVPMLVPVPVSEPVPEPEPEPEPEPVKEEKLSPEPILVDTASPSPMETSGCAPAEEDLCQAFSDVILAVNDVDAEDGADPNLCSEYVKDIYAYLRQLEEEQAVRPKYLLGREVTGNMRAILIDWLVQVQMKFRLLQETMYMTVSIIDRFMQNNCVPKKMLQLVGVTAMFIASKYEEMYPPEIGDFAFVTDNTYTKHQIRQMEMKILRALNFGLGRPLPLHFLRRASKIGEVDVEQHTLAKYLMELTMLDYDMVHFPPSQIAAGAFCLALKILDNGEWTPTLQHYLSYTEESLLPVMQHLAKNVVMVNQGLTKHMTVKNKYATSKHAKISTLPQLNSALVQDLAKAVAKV

IC50 [1] [nM] | IC50 [2] | IC50 [3] [nM] | IC50 [4] [nM] | IC50 [5] | IC50 [6] [nM] | IC50 [7] [nM] | IC50 [9] [nM] | IC50 [10] [nM] | IC50 [11] [nM] | SMILES | IC50 [8] [nM]
354 | 55 nM and 52.5 nM | 372 | < 302 | 132 nM and 120 nM | 457 | < 302 | 525 | < 302 | 407 | COc1ccc2cc1OCCCC(=O)N(C)CCCNc1ncnc3c1/C(=C/N2)C(=O)N3 [Compound 9] | 1380
> 10000 | 4790 nM | > 10000 | > 10000 | > 10000 nM | > 10000 | > 10000 | > 10000 | > 10000 | > 10000 | COc1ccc2cc1OCCCCCC(=O)N1CCN(CC1)c1ncnc3c1/C(=C/N2)C(=O)N3 [Compound 18] | > 10000
1950 | 525 nM | 1000 | 537 | 4680 nM | 1580 | < 302 | 2820 | 1230 | 646 | COc1ccc2cc1OCCCC(=O)N(C)CCCN(C)c1ncnc3c1/C(=C/N2)C(=O)N3 [Compound 31] | 1910
